Laboratory results from PubChem BioAssay (NCI).
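96-well plates; 48 h exposure; 5 concentrations. Endpoints by linear interpolation between flanking doses. Not reached: highest tested concentration assigned. TGI denotes the concentration required for complete inhibition of growth.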

What was measured:
Experiment in all cases: DTP human tumour cell line panel, 48 h
786-0 renal = test system: 786-0 renal
A498 renal = test system: A498 renal
ACHN renal = test system: ACHN renal
CAKI-1 renal = test system: CAKI-1 renal
CCRF-CEM leukemia = test system: CCRF-CEM leukemia
COLO 205 colon = test system: COLO 205 colon
DU-145 prostate = test system: DU-145 prostate
EKVX NSCLC = test system: EKVX NSCLC
HCT-116 colon = test system: HCT-116 colon
HCT-15 colon = test system: HCT-15 colon
HL-60(TB) leukemia = test system: HL-60(TB) leukemia
HOP-62 NSCLC = test system: HOP-62 NSCLC
HOP-92 NSCLC = test system: HOP-92 NSCLC
HS 578T breast = test system: HS 578T breast
HT29 colon = test system: HT29 colon
IGROV1 ovarian = test system: IGROV1 ovarian
K-562 leukemia = test system: K-562 leukemia
KM12 colon = test system: KM12 colon
LOX IMVI melanoma = test system: LOX IMVI melanoma
M14 melanoma = test system: M14 melanoma
MCF7 breast = test system: MCF7 breast
MDA-MB-231 breast = test system: MDA-MB-231 breast
MDA-MB-435 = test system: MDA-MB-435
MDA-N = test system: MDA-N
MOLT-4 leukemia = test system: MOLT-4 leukemia
NCI-H226 lung = test system: NCI-H226 lung
NCI-H23 lung = test system: NCI-H23 lung
NCI-H460 lung = test system: NCI-H460 lung
NCI-H522 lung = test system: NCI-H522 lung
NCI/ADR-RES ovarian = test system: NCI/ADR-RES ovarian
OVCAR-3 ovarian = test system: OVCAR-3 ovarian
OVCAR-4 ovarian = test system: OVCAR-4 ovarian
OVCAR-5 ovarian = test system: OVCAR-5 ovarian
OVCAR-8 ovarian = test system: OVCAR-8 ovarian
PC-3 prostate = test system: PC-3 prostate
RPMI-8226 leukemia = test system: RPMI-8226 leukemia
RXF 393 renal = test system: RXF 393 renal
SF-295 CNS = test system: SF-295 CNS
SF-539 CNS = test system: SF-539 CNS
SK-MEL-2 melanoma = test system: SK-MEL-2 melanoma
SK-MEL-28 melanoma = test system: SK-MEL-28 melanoma
SK-MEL-5 melanoma = test system: SK-MEL-5 melanoma
SK-OV-3 ovarian = test system: SK-OV-3 ovarian
SN12C renal = test system: SN12C renal
SNB-19 CNS = test system: SNB-19 CNS
SNB-75 CNS = test system: SNB-75 CNS
SW-620 colon = test system: SW-620 colon
T-47D breast = test system: T-47D breast
TK-10 renal = test system: TK-10 renal
U251 CNS = test system: U251 CNS
UACC-257 melanoma = test system: UACC-257 melanoma
UACC-62 melanoma = test system: UACC-62 melanoma
UO-31 renal = test system: UO-31 renal

Q: How did the TGI (786-0 renal) turn out when `CC(=O)c1ccc(NCc2cc(O)ccc2O)cc1` was run?
A: 27.7 µM

Q: And the TGI (A498 renal)?
A: > 100 µM

Q: And the TGI (ACHN renal)?
A: 33 µM

Q: What about the TGI (CAKI-1 renal) of the same molecule?
A: 34.6 µM

Q: And the TGI (CCRF-CEM leukemia)?
A: > 100 µM

Q: What about the TGI (COLO 205 colon) of the same molecule?
A: 43.8 µM

Q: What about the TGI (DU-145 prostate) of the same molecule?
A: 58 µM

Q: What about the TGI (EKVX NSCLC) of the same molecule?
A: > 100 µM

Q: And the TGI (HCT-116 colon)?
A: 37.4 µM

Q: And the TGI (HCT-15 colon)?
A: > 100 µM

Q: And the TGI (HL-60(TB) leukemia)?
A: 76.9 µM

Q: What about the TGI (HOP-62 NSCLC) of the same molecule?
A: 42 µM

Q: What about the TGI (HOP-92 NSCLC) of the same molecule?
A: 39.2 µM

Q: And the TGI (HS 578T breast)?
A: > 100 µM

Q: What about the TGI (HT29 colon) of the same molecule?
A: > 100 µM

Q: What about the TGI (IGROV1 ovarian) of the same molecule?
A: > 100 µM

Q: What about the TGI (K-562 leukemia) of the same molecule?
A: > 100 µM

Q: What about the TGI (KM12 colon) of the same molecule?
A: 34.2 µM

Q: And the TGI (LOX IMVI melanoma)?
A: 74.3 µM

Q: What about the TGI (M14 melanoma) of the same molecule?
A: 38.4 µM

Q: And the TGI (MCF7 breast)?
A: > 100 µM

Q: And the TGI (MDA-MB-231 breast)?
A: 73.8 µM

Q: What about the TGI (MDA-MB-435) of the same molecule?
A: 58.6 µM

Q: And the TGI (MDA-N)?
A: 43.5 µM

Q: What about the TGI (MOLT-4 leukemia) of the same molecule?
A: > 100 µM

Q: What about the TGI (NCI-H226 lung) of the same molecule?
A: > 100 µM

Q: And the TGI (NCI-H23 lung)?
A: 48.9 µM

Q: And the TGI (NCI-H460 lung)?
A: 39.9 µM

Q: And the TGI (NCI-H522 lung)?
A: > 100 µM

Q: What about the TGI (NCI/ADR-RES ovarian) of the same molecule?
A: > 100 µM

Q: What about the TGI (OVCAR-3 ovarian) of the same molecule?
A: 19.8 µM

Q: What about the TGI (OVCAR-4 ovarian) of the same molecule?
A: 34.4 µM

Q: And the TGI (OVCAR-5 ovarian)?
A: 44.2 µM

Q: What about the TGI (OVCAR-8 ovarian) of the same molecule?
A: 88.1 µM

Q: What about the TGI (PC-3 prostate) of the same molecule?
A: 41.3 µM

Q: What about the TGI (RPMI-8226 leukemia) of the same molecule?
A: > 100 µM

Q: What about the TGI (RXF 393 renal) of the same molecule?
A: 27.9 µM

Q: What about the TGI (SF-295 CNS) of the same molecule?
A: 34.6 µM

Q: What about the TGI (SF-539 CNS) of the same molecule?
A: 33 µM

Q: And the TGI (SK-MEL-2 melanoma)?
A: 57.3 µM

Q: And the TGI (SK-MEL-28 melanoma)?
A: > 100 µM

Q: And the TGI (SK-MEL-5 melanoma)?
A: 57.2 µM

Q: And the TGI (SK-OV-3 ovarian)?
A: 59.8 µM

Q: And the TGI (SN12C renal)?
A: 92.8 µM

Q: What about the TGI (SNB-19 CNS) of the same molecule?
A: > 100 µM

Q: And the TGI (SNB-75 CNS)?
A: 28 µM

Q: What about the TGI (SW-620 colon) of the same molecule?
A: > 100 µM

Q: What about the TGI (T-47D breast) of the same molecule?
A: 63.1 µM

Q: What about the TGI (TK-10 renal) of the same molecule?
A: 29 µM

Q: And the TGI (U251 CNS)?
A: 54.5 µM

Q: What about the TGI (UACC-257 melanoma) of the same molecule?
A: 33.9 µM

Q: And the TGI (UACC-62 melanoma)?
A: 29.8 µM

Q: And the TGI (UO-31 renal)?
A: 23.9 µM
